Measurements reported in paper PMC9774334 (ACS Omega, 2022).

What was measured:
TmaFuc = target: T1, TmaFuc (Thermotoga maritima, UniProt Q9WYE2); experiment: p-nitrophenol release at […] nm; assay type: biochemical; settings: 2 mM substrate
T1 sequence (Q9WYE2 1-449): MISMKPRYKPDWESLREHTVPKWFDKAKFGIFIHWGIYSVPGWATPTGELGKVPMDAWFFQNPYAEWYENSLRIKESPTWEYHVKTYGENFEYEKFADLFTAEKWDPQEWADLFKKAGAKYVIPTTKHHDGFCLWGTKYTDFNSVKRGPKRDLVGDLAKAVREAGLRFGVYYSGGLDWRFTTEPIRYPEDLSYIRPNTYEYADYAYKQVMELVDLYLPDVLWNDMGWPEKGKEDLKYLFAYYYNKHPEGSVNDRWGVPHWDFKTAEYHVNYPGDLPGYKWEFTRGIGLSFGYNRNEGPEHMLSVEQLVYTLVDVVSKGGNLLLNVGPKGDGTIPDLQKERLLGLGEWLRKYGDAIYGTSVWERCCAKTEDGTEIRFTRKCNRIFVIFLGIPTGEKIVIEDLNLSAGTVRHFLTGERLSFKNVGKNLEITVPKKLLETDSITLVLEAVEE

ClAgl29B = target: T2, ClAgl29B (Cecembia lonarensis, UniProt K1KV82); experiment: X-ray crystal structure, […] Å, soaking; assay type: binding; settings: active site; crystal pH 3.5, 30 mM L-glucose soak
T2 sequence (K1KV82 21-586): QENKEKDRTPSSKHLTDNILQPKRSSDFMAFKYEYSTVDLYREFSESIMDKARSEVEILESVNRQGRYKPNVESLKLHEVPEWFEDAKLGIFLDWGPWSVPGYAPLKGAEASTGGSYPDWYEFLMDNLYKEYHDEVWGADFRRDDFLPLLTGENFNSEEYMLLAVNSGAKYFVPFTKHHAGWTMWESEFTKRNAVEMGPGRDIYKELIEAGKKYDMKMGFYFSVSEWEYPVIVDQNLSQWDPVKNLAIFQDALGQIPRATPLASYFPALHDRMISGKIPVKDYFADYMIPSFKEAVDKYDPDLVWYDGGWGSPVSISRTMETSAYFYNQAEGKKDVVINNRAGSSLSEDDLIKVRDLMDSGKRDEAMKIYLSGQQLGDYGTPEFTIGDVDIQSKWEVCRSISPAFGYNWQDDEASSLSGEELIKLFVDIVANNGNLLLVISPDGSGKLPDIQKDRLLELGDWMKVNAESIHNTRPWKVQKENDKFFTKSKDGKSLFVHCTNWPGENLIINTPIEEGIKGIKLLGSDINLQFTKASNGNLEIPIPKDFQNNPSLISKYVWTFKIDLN

p-nitrophenol release at 400 nm (TmaFuc)	SMILES	X-ray crystal structure, 1.7 Å, soaking (ClAgl29B)
TmaFuc hydrolyzed PNP α-L-Fuc	C[C@@H]1O[C@@H](Oc2ccc([N+](=O)[O-])cc2)[C@@H](O)[C@H](O)[C@@H]1O [PNP α-L-Fuc]	–
–	OC[C@@H]1O[C@H](O)[C@@H](O)[C@H](O)[C@H]1O [β-L-glucose]	The ClAgl29B complex obtained with β-L-glucose by a soaking experiment
